In article PMC5259734, “Identification of Key Residues for Urate Specific Transport in Human Glucose Transporter 9 (hSLC2A9)” (Scientific Reports, 2017):

Columns and labels:
Format in all cases: cell-based
[1] = target: T1, hSLC2A9b (human glucose transporter 9) (Homo sapiens, UniProt Q9NRM0); test: […] urate flux kinetics and TEVC in Xenopus oocytes
T1 construct: gene SLC2A9; hSLC2A9b isoform (shorter N-terminus), WT
T1 sequence (Q9NRM0 1-511 isoform Q9NRM0-2 limits assumed): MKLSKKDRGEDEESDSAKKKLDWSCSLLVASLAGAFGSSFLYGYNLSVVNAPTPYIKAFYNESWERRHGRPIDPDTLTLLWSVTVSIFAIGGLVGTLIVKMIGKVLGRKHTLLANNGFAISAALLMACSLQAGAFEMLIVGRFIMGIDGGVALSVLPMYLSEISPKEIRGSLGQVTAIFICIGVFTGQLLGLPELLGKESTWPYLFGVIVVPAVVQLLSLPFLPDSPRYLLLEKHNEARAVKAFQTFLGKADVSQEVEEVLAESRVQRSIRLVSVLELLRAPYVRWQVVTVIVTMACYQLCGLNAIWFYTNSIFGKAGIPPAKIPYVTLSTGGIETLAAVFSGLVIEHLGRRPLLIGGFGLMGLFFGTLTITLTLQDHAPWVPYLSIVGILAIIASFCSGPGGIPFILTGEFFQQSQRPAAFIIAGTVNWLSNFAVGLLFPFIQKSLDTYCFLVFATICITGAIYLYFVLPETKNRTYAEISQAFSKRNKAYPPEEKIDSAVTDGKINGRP

[2] = target: T1, hSLC2A9b (human glucose transporter 9); test: TEVC inhibition of urate-induced current and […] urate flux in Xenopus oocytes
[3] = target: T1, hSLC2A9b (human glucose transporter 9); test: […] fructose uptake in Xenopus oocytes

## O=c1[nH]c(=O)c2[nH]c(=O)[nH]c2[nH]1 [urate]
[1]
  14C urate flux kinetics and TEVC in Xenopus oocytes: both WT hSLC2A9b and its cysteine mutants exhibited Michaelis-Menten type kinetics for urate transport

## O=S(=O)(O)c1cc[c]([Hg][Cl])cc1 [pCMBS]
[2]
  IC50: 52.5 µM

## OC[C@H]1OC(O)(CO)[C@@H](O)[C@@H]1O (stereo partly drawn) [fructose]
[3]
  14C fructose uptake in Xenopus oocytes: all mutants transported fructose similarly as WT hSLC2A9b
